Assay results taken from patent US10770169B2, “Method of providing a treatment to a subject based on a dynamic pathway map” (THE REGENTS OF THE UNIVERSITY OF CALIFORNIA, priority 2010, dated 2020).

Tested on: panel of 55 breast cancer cell lines
Test: Cell growth inhibition assay (Cell Titer Glo, 72 h, 9 doses; GI50, TGI, LC50)
Type: cell-based, human
Settings: value is the negative log10 of mol/L
[1] = AU565 cell line, censored GI50 values
[2] = BT474 cell line, censored GI50 values
[3] = BT483 cell line, censored GI50 values
[4] = CAMA1 cell line, censored GI50 values
[5] = HCC38 cell line, censored GI50 values
[6] = HCC70 cell line, censored GI50 values
[7] = HCC1143 cell line, censored GI50 values
[8] = HCC1187 cell line, censored GI50 values
[9] = HCC1395 cell line, censored GI50 values
[10] = HCC1419 cell line, censored GI50 values
[11] = HCC1428 cell line, censored GI50 values
[12] = HCC1500 cell line, censored GI50 values
[13] = HCC1806 cell line, censored GI50 values
[14] = HCC1937 cell line, censored GI50 values
[15] = HCC1954 cell line, censored GI50 values
[16] = HCC2185 cell line, censored GI50 values
[17] = HCC3153 cell line, censored GI50 values
[18] = MCF7 cell line, censored GI50 values
[19] = MDAMB134VI cell line, censored GI50 values
[20] = MDAMB157 cell line, censored GI50 values
[21] = MDAMB175VII cell line, censored GI50 values
[22] = MDAMB231 cell line, censored GI50 values
[23] = MDAMB361 cell line, censored GI50 values
[24] = MDAMB415 cell line, censored GI50 values
[25] = MDAMB436 cell line, censored GI50 values
[26] = MDAMB453 cell line, censored GI50 values
[27] = MDAMB468 cell line, censored GI50 values
[28] = SKBR3 cell line, censored GI50 values
[29] = SUM149PT cell line, censored GI50 values
[30] = SUM159PT cell line, censored GI50 values
[31] = SUM185PE cell line, censored GI50 values
[32] = SUM1315MO2 cell line, censored GI50 values

Structure (SMILES): C[C@@H](Oc1cc(-n2cnc3ccc(CN4CCN(C)CC4)cc32)sc1C(N)=O)c1ccccc1C(F)(F)F [GSK461364A]
- GI50 (600MPE cell line, censored GI50 values): 5.16
- GI50 [1]: 8.35
- GI50 [2]: 5.07
- GI50 [3]: 5.35
- GI50 [4]: 5.17
- GI50 [5]: 7.42
- GI50 [6]: 7.01
- GI50 [7]: 7.13
- GI50 [8]: 7.48
- GI50 [9]: 8.31
- GI50 [10]: 5.12
- GI50 [11]: 5.26
- GI50 [12]: 7.89
- GI50 [13]: 7.95
- GI50 [14]: 7.51
- GI50 [15]: 8.16
- GI50 [16]: 8.26
- GI50 [17]: 7.50
- GI50 [18]: 7.82
- GI50 [19]: 7.83
- GI50 [20]: 8.98
- GI50 [21]: 5.21
- GI50 [22]: 7.68
- GI50 [23]: 8.72
- GI50 [24]: 7.08
- GI50 [25]: 7.90
- GI50 [26]: 7.97
- GI50 [27]: 8.41
- GI50 [28]: 7.78
- GI50 [29]: 7.72
- GI50 [30]: 7.49
- GI50 [31]: 5.66
- GI50 [32]: 7.51
- GI50 (cell line 600MPE): 5.16
- GI50 (cell line AU565): 8.35

Structure (SMILES): CC(C)Oc1ccc(C(=O)N[C@H](CNC(=O)CN(C)C)Cc2ccc(-c3cn4cccc([C@H](C)O)c4n3)cc2)cc1Cl [GSK923295]
- GI50 [1]: 7.62
- GI50 [2]: 5.42
- GI50 [3]: 6.44
- GI50 [4]: 7.33
- GI50 [5]: 7.32
- GI50 [6]: 7.68
- GI50 (HCC202 cell line, censored GI50 values): 7.77
- GI50 [7]: 6.77
- GI50 [8]: 7.52
- GI50 [9]: 7.33
- GI50 [10]: 5.72
- GI50 [11]: 5.21
- GI50 [12]: 7.28
- GI50 [13]: 7.34
- GI50 [14]: 7.20
- GI50 [15]: 7.62
- GI50 [16]: 7.43
- GI50 [17]: 7.22
- GI50 [18]: 5.90
- GI50 [19]: 5.50
- GI50 [20]: 7.50
- GI50 [21]: 6.76
- GI50 [22]: 7.34
- GI50 [23]: 7.42
- GI50 [24]: 7.28
- GI50 [25]: 7.59
- GI50 [26]: 6.96
- GI50 [27]: 7.61
- GI50 [28]: 7.34
- GI50 [29]: 7.17
- GI50 [30]: 7.43
- GI50 [31]: 5.42
- GI50 [32]: 7.44
- GI50 (cell line 600MPE): 4.48
- GI50 (cell line AU565): 7.62
- GI50 (cell line BT474): 5.42
- GI50 (cell line BT483): 6.44
- GI50 (cell line CAMA1): 7.33
- GI50 (cell line HCC38): 7.32
- GI50 (cell line HCC70): 7.68
- GI50 (cell line HCC202): 7.77
- GI50 (cell line HCC1143): 6.77
- GI50 (cell line HCC1187): 7.52
- GI50 (cell line HCC1395): 7.33
- GI50 (cell line HCC1419): 5.72
- GI50 (cell line HCC1428): 5.21
- GI50 (cell line HCC1500): 7.28
- GI50 (cell line HCC1806): 7.34
- GI50 (cell line HCC1937): 7.20
- GI50 (cell line HCC1954): 7.62
- GI50 (cell line HCC2185): 7.43
- GI50 (cell line HCC3153): 7.22
- GI50 (cell line MCF7): 5.90
- GI50 (cell line MDAMB134V): 5.50
- GI50 (cell line MDAMB157): 7.50
- GI50 (cell line MDAMB175V): 6.76
- GI50 (cell line MDAMB231): 7.34
- GI50 (cell line MDAMB361): 7.42
- GI50 (cell line MDAMB415): 7.28
- GI50 (cell line MDAMB436): 7.59
- GI50 (cell line MDAMB453): 6.96
- GI50 (cell line MDAMB468): 7.61
- GI50 (cell line SKBR3): 7.34
- GI50 (cell line SUM52PE): 7.64
- GI50 (cell line SUM149PT): 7.17
- GI50 (cell line SUM159PT): 7.43
- GI50 (cell line SUM185PE): 5.42
- GI50 (cell line SUM1315MO): 7.44
- GI50 (cell line UACC812): 7.92
- GI50 (cell line UACC893): 7.91
- GI50 (cell line ZR75B): 7.15
- GI50 (cell line ZR751): 6.92
- GI50 (cell line ZR7530): 7.68
